Measurements: patent publication US9669014B2, “Small molecule inhibitors of superoxide dismutase expression” (Northwestern University, priority 2014, dated 2017)
In brackets after ≈: the same amount, converted by molar mass. Entries after “also recorded” stand apart in the source; their conditions may differ. Where two headings read alike, the source gives them in different places.

Assays:
G93A-SOD1 expression = experiment: SOD1 protein expression in cultured fibroblasts from G93A-SOD1 mice (ELISA); type: cell-based, mouse; conditions: for Effect on SOD1 expression (in words) / Shape of dose-response curve for SOD1 expression / IC50: G93A-SOD1 mouse fibroblasts; for activity at 10 µM: Mus musculus, 48 h, 10 μM compound
Procedure: Fibroblasts were treated with the title compounds at the indicated concentration for 48 hr. Cells were washed, lysed, and SOD1 levels measured by ELISA. SOD1 levels are normalized to the total protein in the lysate.
Thus, we used cultured fibroblasts from the G93A-SOD1 transgenic mouse to screen GSK3β protein kinase inhibitors (FIG. 1) for their effects on SOD1 expression. The transgene construct contains the human SOD1 promoter so that cellular signaling processes that affect transcription of the gene will be fully functional. We chose a structurally diverse group of compounds including some natural products.

CDK5, CDK2, CDK1, CDK4 = conditions: cited from earlier work
SOD1 = SOD1 protein in CNS tissues of treated G93A-SOD1 mice (ELISA); type: in vivo, mouse; conditions: 20 mg/kg IP every other day for 26 days
Procedure: FIG. 7. Inhibition of SOD1 protein expression in the G93A-SOD1 mouse. GSK3B-I treatment was at 20 mg/kg IP every other day for 26 days. Mice were sacrificed and SOD1 measured in the indicated tissues. […] Error bars are SEM.
Initial testing was carried out in a small cohort (5-6 animals) of G93A-SOD1 mice (high level of mutant SOD1 expression). The drug was dosed at 20 mg/kg IP every other day for 26 days. Mice were sacrificed and SOD1 was measured by ELISA.

[1] = Distribution in tissues of nontransgenic mice after injection; type: in vivo, mouse; conditions: for Concentration (μM), Brain / Concentration (μM), Serum / Concentration (μM), Spinal cord: n = 2; for CNS distribution and persistence (in words): nontransgenic mice; for concentration at 2 h / concentration at 4 h / concentration at 24 h: mouse, other: injection, 10 mg/kg injection
Procedure: The blood brain barrier permeability of GSK3B-II was determined in nontransgenic mice. […] The peak and sustained concentrations found in the spinal cord and brain indicate that the 20 mg/kg dose puts the drug into the inhibitory range found in the cellular assays.
(§1) We also tested compound NUCC-434 for distribution in non-transgenic mice. […] While there are a multitude of methods for improving aqueous solubility of drugs (32) we chose a relatively simple route using a cyclodextrin based carrier (Sulfo-butylether beta-cyclodextrin, Captisol) to solubilize the drug in aqueous solution. Using the cyclodextrin carrier, we were able to solubilize NUCC-434 to 2 mg/mL in water and deliver 10 mg/kg to nontransgenic mice for pharmacokinetics. […] However, the distribution dynamics are different in the presence of the cyclodextrin which appears to slow uptake into the CNS as the peak drug concentration was delayed (Table 4). Such changes in distribution dynamics using cyclodextrins have not been studied in detail.

SOD1 mRNA = SOD1 mRNA in G93A-SOD1 mouse fibroblasts; type: cell-based
Excerpt: FIG. 3. […] A. Dose-dependent changes in G93A-SOD1 protein expression and B. SOD1 mRNA (n=3). Data are normalized to GAPDH activity (protein) or mRNA. Error bars are SEM.

SOD1 expression = SOD1 expression in G93A-SOD1 transgenic mouse motor neurons; type: cell-based
Excerpt: The compound decreases SOD1 expression in vitro in assays done in mouse fibroblasts (FIG. 3) and mouse motor neurons (FIG. 7).
The mechanism of inhibition is largely due to a decrease in the G93A-SOD1 mRNA. The transgene expressed in the mouse uses the native human promoter. Thus, therapy with these drugs in human subjects would also lead to a decrease in SOD1 mRNA in all tissues.

cell toxicity [2] = experiment: Cell toxicity; type: cell-based
GSK3β = GSK3β (Homo sapiens, UniProt P49841); conditions: published values; cited from earlier work
Chain of GSK3β (P49841 whole entry, species assumed): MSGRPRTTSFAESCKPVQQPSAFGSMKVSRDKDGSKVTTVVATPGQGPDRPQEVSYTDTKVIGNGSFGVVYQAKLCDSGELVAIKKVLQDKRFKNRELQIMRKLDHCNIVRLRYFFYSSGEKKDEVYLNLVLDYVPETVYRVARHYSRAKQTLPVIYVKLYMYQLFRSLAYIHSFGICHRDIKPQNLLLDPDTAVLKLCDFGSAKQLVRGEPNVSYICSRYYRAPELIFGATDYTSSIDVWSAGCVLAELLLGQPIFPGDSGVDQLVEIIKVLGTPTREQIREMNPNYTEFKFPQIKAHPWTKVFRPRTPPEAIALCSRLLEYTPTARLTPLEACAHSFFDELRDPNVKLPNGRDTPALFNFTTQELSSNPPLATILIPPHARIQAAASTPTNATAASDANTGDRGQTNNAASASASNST

[3] = Solubility in dosing vehicle; type: physicochemical
Procedure: as §1

cell toxicity [4] = conditions: cited from earlier work
[5] = 20 mg/kg intraperitoneal, 24 hr
[6] = Fibroblast, Table 2, relative to control, read-out: Relative SOD1 expression 10 μM compound
[7] = Fibroblast, Table 5, read-out: Relative SOD1 Expression in Presence of Compound (10 μM)
[8] = brain, cyclodextrin carrier, read-out: Brain
[9] = serum, cyclodextrin carrier, read-out: Serum
[10] = spinal cord, cyclodextrin carrier, read-out: Spinal Cord

Row | Compound | Effect on SOD1 expression (in words) (G93A-SOD1 expression) | activity at 10 µM (G93A-SOD1 expression; [6]) [%] | activity at 10 µM (G93A-SOD1 expression; [7]) [%] | also measured
1 | CCCCc1c(-c2ccc(O)cc2)[nH]c2nccnc12 [Aloisine, Aloisine A, reference compound] | increased SOD1 expression | – | – | Effect on SOD1 expression (in words) (G93A-SOD1 expression; 48 hr treatment): Increases SOD1; Comments: other kinases inhibited (CDK5, CDK2, CDK1, CDK4): Also inhibits CDK5,
2 | Ic1cccc(CSc2nnc(-c3ccncc3)o2)c1 [GSK3B-II, reference compound] | most potent at inhibiting G93A-SOD1 expression; also recorded: dose dependent reduction of SOD1 expression in vitro | – | – | Change of SOD1 protein in spinal cord, cerebellum, brain stem, cerebral cortex (SOD1): significant decreases in SOD1 were measured; also recorded: SOD1 protein is reduced; Change of SOD1 protein in spinal cord, cerebellum, brain stem, cerebral cortex (SOD1; listed as GSK3B-I): change in expression was significant; Concentration (μM), Brain ([1]; 20 mg/kg intraperitoneal, 1 hr): 0.944 µM; Concentration (μM), Serum ([1]; 20 mg/kg intraperitoneal, 1 hr): 0.672 µM; Concentration (μM), Spinal cord ([1]; 20 mg/kg intraperitoneal, 1 hr): 4.00 µM; Concentration (μM), Brain [1, 5]: 0.077 µM; Concentration (μM), Serum [1, 5]: 0.073 µM; Concentration (μM), Spinal cord [1, 5]: 0.855 µM; CNS distribution and persistence (in words) ([1]; 20 mg/kg intraperitoneal): rapidly distributes into the brain and spinal cord; also recorded: still detectable after 24 hrs in the brain and spinal cord; Shape of dose-response curve for SOD1 expression (G93A-SOD1 expression): biphasic dose-response curve; IC50 (G93A-SOD1 expression; 48 hr treatment): 625 nM; Effect on SOD1 mRNA (SOD1 mRNA): reducing the level of SOD1 mRNA; Effect on SOD1 expression in motor neurons (SOD1 expression): inhibits SOD1 expression
3 | O=C1Nc2cc(Br)ccc2/C1=C1/Nc2ccccc2/C1=N\O [GSK3B-IX, reference compound] | increased SOD1 expression | – | – | –
4 | O=C(CCl)c1cc(Br)c(Br)s1 [GSK3B-VI, reference compound] | inhibits SOD1 expression | – | – | Concentration at which cell toxicity is exhibited (cell toxicity [2]): greater than 5 μM; IC50 (G93A-SOD1 expression; 48 hr treatment): 650 nM; IC50 (GSK3β): 1000 nM
5 | O=C1Cc2c([nH]c3ccc(Br)cc23)-c2ccccc2N1 [Kenpaullone, reference compound] | only weakly decreased SOD1 expression | – | – | IC50 (G93A-SOD1 expression; Fibroblast, 48 hr treatment): 10000 nM; Comments: other kinases inhibited (CDK5, CDK2, CDK1, CDK4): Also inhibits CDK5,
6 | Brc1cccc(CSc2nnc(-c3ccncc3)o2)c1 [NUCC-318] | – | 91 | 90.3 | –
7 | Fc1cccc(CSc2nnc(-c3ccncc3)o2)c1 [NUCC-319] | significant increase in SOD1 expression | 143 | 144 | –
8 | Brc1ccc(CSc2nnc(-c3ccncc3)o2)cc1 [NUCC-320] | no effect on SOD1 expression | 103 | 103 | –
9 | Ic1ccc(CSc2nnc(-c3ccncc3)o2)cc1 [NUCC-321] | – | 69 | 70.2 | –
10 | Brc1ccc(CSc2nnc(-c3cccnc3)o2)cc1 [NUCC-322] | – | – | 68.6 | SOD1 expression, % of control (G93A-SOD1 expression; 10 μM): 68.6 % of control
11 | Cn1c(SCc2ccc(Br)cc2)nnc1-c1ccncc1 [NUCC-0000323] | – | – | 103 | –
12 | Fc1ccc(CSc2nnc(-c3ccncc3)o2)cc1 [NUCC-324] | – | 86 | 86.3 | –
13 | CSc1nnc(-c2ccncc2-c2ccc(F)cc2)o1 [NUCC-0000404] | – | – | 94.9 | –
14 | Cc1cc(-c2nnc(SCc3ccc(F)cc3)o2)ccn1 [NUCC-0000405] | – | – | 95 | –
15 | O=c1c(C2=NC3C=CC=CC3N2)coc2ccc(Cl)cc12 (centres unmarked) [NUCC-0000406] | – | – | 89.9 | –
16 | N#Cc1ccc(-c2ccc(CSc3nnc(-c4ccc5c(c4)OCO5)o3)cc2)cc1 [NUCC-0000418] | – | – | 114 | –
17 | O=[N+]([O-])c1ccccc1CSc1nnc(-c2ccncc2)o1 [NUCC-0000430] | – | – | 101 | –

Row | Compound | Effect on SOD1 expression (in words) (G93A-SOD1 expression) | activity at 10 µM (G93A-SOD1 expression; [6]) [%] | activity at 10 µM (G93A-SOD1 expression; [7]) [%] | also measured
18 | O=[N+]([O-])c1ccc(CSc2nnc(-c3ccncc3)o2)cc1 [NUCC-431] | – | 102 | 102 | –
19 | O=[N+]([O-])c1cccc(CSc2nnc(-c3ccncc3)o2)c1 [NUCC-432] | tended to cause an increase in SOD1 expression | 117 | 117 | –
20 | COc1cccc(CSc2nnc(-c3ccncc3)o2)c1 [NUCC-433] | dose dependent reduction of SOD1 expression in vitro | 50 | 49.9 | Shape of dose-response curve for SOD1 expression (G93A-SOD1 expression): flattened rather than upward curvature at higher concentration
21 | COc1ccc(CSc2nnc(-c3ccncc3)o2)cc1 [NUCC-434] | dose dependent reduction of SOD1 expression in vitro | 47 | 47.4 | Solubility in standard 1-2% DMSO vehicle ([3]; 1-2% DMSO vehicle): poor; solubility ([3]; aqueous with cosolvent or surfactant or cyclodextrin, Sulfo-butylether beta-cyclodextrin (Captisol) in water, read-out: Solubility in water with cyclodextrin carrier): 2000 µg/mL (≈ 6.68 mM); CNS distribution and persistence (in words) ([1]; 10 mg/kg, cyclodextrin carrier): entered the CNS and persisted for 24 hr in the spinal cord; concentration at 2 h [1, 8]: 29 nM; concentration at 4 h [1, 8]: 47 nM; concentration at 2 h [1, 9]: 153 nM; concentration at 4 h [1, 9]: 334 nM; concentration at 24 h ([1]; serum, cyclodextrin carrier, 24 hr, read-out: Serum): 123 nM; concentration at 2 h [1, 10]: 57 nM; concentration at 4 h [1, 10]: 162 nM; concentration at 24 h ([1]; spinal cord, cyclodextrin carrier, 24 hr, read-out: Spinal Cord): 113 nM; Shape of dose-response curve for SOD1 expression (G93A-SOD1 expression): flattened rather than upward curvature at higher concentration
22 | FC(F)(F)c1ccc(CSc2nnc(-c3ccncc3)o2)cc1 [NUCC-435] | significant increase in SOD1 expression | 157 | 158 | –
23 | Cc1ccc(CSc2nnc(-c3ccncc3)o2)cc1 [NUCC-436] | – | 126 | 126 | –
24 | c1cc(CSc2nnc(-c3ccncc3)o2)ccn1 [NUCC-437] | not significantly different from control | – | 90.3 | –
25 | c1cncc(CSc2nnc(-c3ccncc3)o2)c1 [NUCC-438] | not significantly different from control | – | 112 | –
26 | Clc1cccc(CSc2nnc(-c3ccncc3)o2)c1 [NUCC-439] | – | 96 | 95.9 | –
27 | Clc1ccc(CSc2nnc(-c3ccncc3)o2)cc1 [NUCC-440] | tended to cause an increase in SOD1 expression | 123 | 123 | –
28 | c1ccc(CSc2nnc(-c3ccncc3)o2)cc1 [NUCC-441] | activates expression of SOD1 | 133 | 133 | –
29 | CSc1nnc(-c2ccnc(Nc3ccccc3)c2)o1 [NUCC-0000471] | – | – | 106 | –
30 | CSc1nnc(-c2ccnc(NCc3ccccc3)c2)o1 [NUCC-0000472] | – | – | 146 | –
31 | CSc1nnc(-c2ccnc(NC3CCOCC3)c2)o1 [NUCC-0000473] | – | – | 127 | –
32 | Cn1cc(C2=C(c3ccc(Cl)cc3Cl)C(=O)NC2=O)c2ccccc21 [SB216763, reference compound] | not more effective at decreasing SOD1 expression in vitro | – | – | IC50 (G93A-SOD1 expression; Fibroblast, 48 hr treatment): 3000 nM
33 | CCc1nc(N)nc(N)c1-c1ccc(Cl)cc1 [pyrimethamine] | – | – | – | Cell toxicity in vitro (cell toxicity [4]): cell toxicity in the effective dose range
